The record followed here is PMC4558462, “A new small molecule inhibitor of soluble guanylate cyclase” (Bioorganic & Medicinal Chemistry, 2015).

Experiment [1] concerns the target T1, membrane-bound GCs (pGC) (Rattus norvegicus, UniProt P18910).
T1 sequence (P18910 29-1057): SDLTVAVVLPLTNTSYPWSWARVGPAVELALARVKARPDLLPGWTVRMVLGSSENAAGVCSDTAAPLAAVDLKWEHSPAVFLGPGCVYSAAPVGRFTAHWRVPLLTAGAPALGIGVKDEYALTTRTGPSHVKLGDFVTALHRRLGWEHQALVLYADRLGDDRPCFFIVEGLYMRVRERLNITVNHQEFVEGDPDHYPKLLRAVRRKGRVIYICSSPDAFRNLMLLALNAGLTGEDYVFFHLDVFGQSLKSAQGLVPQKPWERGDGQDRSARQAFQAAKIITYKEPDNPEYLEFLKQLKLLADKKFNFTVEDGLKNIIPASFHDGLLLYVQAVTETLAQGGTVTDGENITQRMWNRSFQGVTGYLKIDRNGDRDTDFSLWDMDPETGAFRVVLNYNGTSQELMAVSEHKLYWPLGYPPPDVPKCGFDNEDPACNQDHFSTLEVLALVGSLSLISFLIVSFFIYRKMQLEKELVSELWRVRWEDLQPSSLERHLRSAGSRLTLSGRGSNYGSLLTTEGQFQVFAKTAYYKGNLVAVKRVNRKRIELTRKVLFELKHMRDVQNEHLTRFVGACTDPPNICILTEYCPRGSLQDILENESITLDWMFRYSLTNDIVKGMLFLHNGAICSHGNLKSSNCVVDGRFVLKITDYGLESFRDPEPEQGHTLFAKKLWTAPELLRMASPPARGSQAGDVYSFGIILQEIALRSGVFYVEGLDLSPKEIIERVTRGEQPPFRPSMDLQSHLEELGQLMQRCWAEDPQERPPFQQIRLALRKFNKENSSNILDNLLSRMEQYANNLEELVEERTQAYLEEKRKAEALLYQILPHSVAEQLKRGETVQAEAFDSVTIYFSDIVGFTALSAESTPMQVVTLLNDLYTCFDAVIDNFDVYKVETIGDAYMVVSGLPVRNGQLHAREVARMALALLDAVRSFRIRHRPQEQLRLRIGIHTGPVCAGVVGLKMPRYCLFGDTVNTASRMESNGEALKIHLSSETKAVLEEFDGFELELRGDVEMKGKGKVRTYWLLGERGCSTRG
The experiment in a line: Particulate guanylate cyclase assay in purified rat lung membranes. In kind it is biochemical. On the procedure: Purified rat lung membranes (20 μg protein/200 μL) were incubated in Tris buffer with 10 mM phosphocreatine, 10 units/mL creatine phosphokinase, and 10 μM ODQ to inhibit NO-activated GC. The reaction took place with 0.3 mM MgCl, 0.5 mM MgATP, and 1 mM MgGTP, at 37 °C. The compound was added and 1 μM ANP used to activate pGC. cGMP formation was allowed to proceed for 10.5–12.5 min and was subsequently measured by radioimmunoassay.

Experiment [2] concerns NMDA-stimulated cGMP production in cerebellar slices. The experiment in a line: NMDA-stimulated cGMP production in rat cerebellar slices. Format: cell-based. To be noted: 100 μM. On the procedure:
The ability of compound 10 to inhibit sGC in tissues was explored using NMDA-stimulated cGMP production in cerebellar slices, which depends on NO formation. Rat cerebellar slices were pre-incubated with compound 10 then treated with NMDA.
Brain slices methods were conducted as described in detail.[37,38] Briefly, 0.4 mm thick sagittal cerebellar slices from 10-day-old animals were cut using a McIlwain tissue chopper. Experiments were carried out in the presence of the broad spectrum phosphodiesterase inhibitor IBMX (1 mM; 10 min preincubation) and, when appropriate, antagonists were added 10 min prior to IBMX. Following treatment, brain slices were inactivated in boiling Tris–HCl buffer (50 mM, pH 7.5) containing EDTA (4 mM) and homogenised by sonication after which aliquots were removed for measurement of protein (bicinchoninic acid method) and cGMP (radioimmunoassay).

“Also recorded” adds a separate entry of the source.

`O=[N+]([O-])c1ccc2nc(Nc3ccc(O)cc3)c(Nc3ccc(O)cc3)nc2c1` [Compound 10, 4,4′-((6-Nitroquinoxaline-2,3-diyl)bis(azanediyl))diphenol]: the Hill slope in experiment [1] (Basal (listed under ANP group)) is listed as 2; in experiment [1] (GC activator ANP 10 nM), 2; in experiment [1] (GC activator ANP 1 μM) it was 1. The concentration for half-maximal inhibition (IC50) in experiment [1] (Basal (listed under ANP group)) came to 15 ± 2 µM; in experiment [1] (GC activator ANP 10 nM, rat lung membranes, 10 μM ODQ), 21 ± 3 µM; in experiment [1] (GC activator ANP 1 μM, rat lung membranes, 10 μM ODQ) it was 25 ± 13 µM. In addition, in experiment [1] (rat lung membranes, atrial natriuretic peptide stimulation, 10 μM ODQ), the “inhibition of pGC-generated cGMP (in words)” value was “showed inhibition; also recorded: Inhibition of particulate GC was also observed”. Besides, in experiment [2], the “inhibition of NMDA-induced cGMP generation” value was “almost completely; also recorded: inhibits cGMP production”.
